Results: paper PMC9927415, “Tyrosine Kinase Inhibitors Display Potent Activity against Cryptosporidium parvum” (Microbiology Spectrum, 2022)

Key:
Assay in all cases: KINOMEscan competitive binding, whole panel
[1] = biological target: T1, panel of 203 kinases (Homo sapiens, UniProt P07333); settings: 10 µM, n=1; kinase CSF1R; read-out: Percent inhibition CSF1R
T1 construct: purchased DiscoverX (KINOMEscan)
In short: (§1)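 Kinases expressed as T7 bacteriophage fusions; test compound competes with an immobilized ATP-site probe ligand. Kinase still bound to the solid support was quantified and expressed as percentage inhibition.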

[2] = biological target: T2, panel of 203 kinases (Homo sapiens, UniProt Q9Y2H1); settings: 10 µM, n=1; kinase NDR2; read-out: Percent inhibition NDR2
T2 construct: purchased DiscoverX (KINOMEscan)
In short: as §1

[3] = biological target: T3, panel of 203 kinases (Homo sapiens, UniProt P51451); settings: 10 µM, n=1; kinase BLK; read-out: Percent inhibition BLK
T3 construct: purchased DiscoverX (KINOMEscan)
In short: as §1

[4] = biological target: T4, panel of 203 kinases (Homo sapiens, UniProt P29320); settings: 10 µM, n=1; kinase EPHA3; read-out: Percent inhibition EPHA3
T4 construct: purchased DiscoverX (KINOMEscan)
T4 sequence (P29320 21-983): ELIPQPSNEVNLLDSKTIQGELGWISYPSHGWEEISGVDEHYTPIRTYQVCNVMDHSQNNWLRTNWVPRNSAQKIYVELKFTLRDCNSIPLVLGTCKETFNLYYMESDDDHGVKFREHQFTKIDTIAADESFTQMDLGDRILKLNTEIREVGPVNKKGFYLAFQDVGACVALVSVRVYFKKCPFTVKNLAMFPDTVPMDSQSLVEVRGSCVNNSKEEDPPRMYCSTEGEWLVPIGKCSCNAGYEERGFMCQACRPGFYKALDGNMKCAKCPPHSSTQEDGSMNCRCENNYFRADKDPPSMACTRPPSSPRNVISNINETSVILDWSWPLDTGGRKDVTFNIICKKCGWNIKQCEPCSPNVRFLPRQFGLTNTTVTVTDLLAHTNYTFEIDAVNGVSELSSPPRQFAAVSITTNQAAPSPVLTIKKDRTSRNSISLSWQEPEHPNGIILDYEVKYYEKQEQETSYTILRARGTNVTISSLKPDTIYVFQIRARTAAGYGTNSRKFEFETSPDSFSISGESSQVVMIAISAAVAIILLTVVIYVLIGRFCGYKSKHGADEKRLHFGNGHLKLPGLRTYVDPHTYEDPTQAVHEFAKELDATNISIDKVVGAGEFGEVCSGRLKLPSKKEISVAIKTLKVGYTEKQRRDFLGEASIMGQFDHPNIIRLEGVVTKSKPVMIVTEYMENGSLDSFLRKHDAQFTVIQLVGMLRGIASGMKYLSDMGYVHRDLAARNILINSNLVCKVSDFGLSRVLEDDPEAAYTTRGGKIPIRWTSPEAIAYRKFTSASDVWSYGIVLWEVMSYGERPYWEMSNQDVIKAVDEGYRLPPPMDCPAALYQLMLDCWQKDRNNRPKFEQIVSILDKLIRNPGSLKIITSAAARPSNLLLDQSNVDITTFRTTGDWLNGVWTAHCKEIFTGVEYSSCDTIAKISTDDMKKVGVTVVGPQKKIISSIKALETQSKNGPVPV
In short: as §1

[5] = biological target: T5, panel of 203 kinases (Homo sapiens, UniProt P54756); settings: 10 µM, n=1; kinase EPHA5; read-out: Percent inhibition EPHA5
T5 construct: purchased DiscoverX (KINOMEscan)
In short: as §1

[6] = biological target: T6, panel of 203 kinases (Homo sapiens, UniProt Q96NX5); settings: 10 µM, n=1; kinase CAMK1G; read-out: Percent inhibition CAMK1G
T6 construct: purchased DiscoverX (KINOMEscan)
In short: as §1

[7] = biological target: T7, panel of 203 kinases (Homo sapiens, UniProt Q9Y4K4); settings: 10 µM, n=1; kinase MAP4K5; read-out: Percent inhibition MAP4K5
T7 construct: purchased DiscoverX (KINOMEscan)
In short: as §1

[8] = biological target: T8, panel of 203 kinases (Homo sapiens, UniProt Q04771); settings: 10 µM, n=1; kinase ACVR1; read-out: Percent inhibition ACVR1
T8 construct: purchased DiscoverX (KINOMEscan)
T8 sequence (Q04771 21-509): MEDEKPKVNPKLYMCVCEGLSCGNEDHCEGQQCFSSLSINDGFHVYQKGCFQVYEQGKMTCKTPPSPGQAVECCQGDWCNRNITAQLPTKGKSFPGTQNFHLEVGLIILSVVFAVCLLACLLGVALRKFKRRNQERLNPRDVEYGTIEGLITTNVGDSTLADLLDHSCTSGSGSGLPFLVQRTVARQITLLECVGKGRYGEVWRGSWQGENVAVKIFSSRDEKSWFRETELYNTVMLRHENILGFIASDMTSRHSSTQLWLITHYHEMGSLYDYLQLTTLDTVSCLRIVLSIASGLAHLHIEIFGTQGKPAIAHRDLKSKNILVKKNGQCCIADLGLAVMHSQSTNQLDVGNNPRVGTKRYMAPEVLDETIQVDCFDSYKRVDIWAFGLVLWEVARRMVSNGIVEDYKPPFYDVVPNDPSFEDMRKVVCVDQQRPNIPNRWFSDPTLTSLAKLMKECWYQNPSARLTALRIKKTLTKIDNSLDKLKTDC
In short: as §1

[9] = biological target: T9, panel of 203 kinases (Homo sapiens, UniProt Q9P0L2); settings: 10 µM, n=1; kinase MARK1; read-out: Percent inhibition MARK1
T9 construct: purchased DiscoverX (KINOMEscan)
In short: as §1

[10] = biological target: T10, panel of 203 kinases (Homo sapiens, UniProt Q13555); settings: 10 µM, n=1; kinase CAMK2G; read-out: Percent inhibition CAMK2G
T10 construct: purchased DiscoverX (KINOMEscan)
In short: as §1

[11] = biological target: T11, panel of 203 kinases (Homo sapiens, UniProt Q5VT25); settings: 10 µM, n=1; kinase MRCKA; read-out: Percent inhibition MRCKA
T11 construct: purchased DiscoverX (KINOMEscan)
In short: as §1

[12] = biological target: T12, panel of 203 kinases (Homo sapiens, UniProt Q9UQM7); settings: 10 µM, n=1; kinase CAMK2A; read-out: Percent inhibition CAMK2A
T12 construct: purchased DiscoverX (KINOMEscan)
In short: as §1

[13] = biological target: T13, panel of 203 kinases (Homo sapiens, UniProt Q8IU85); settings: 10 µM, n=1; kinase CAMK1D; read-out: Percent inhibition CAMK1D
T13 construct: purchased DiscoverX (KINOMEscan)
In short: as §1

[14] = biological target: T14, panel of 203 kinases (Homo sapiens, UniProt P19784); settings: 10 µM, n=1; kinase CSNK2A2; read-out: Percent inhibition CSNK2A2
T14 construct: purchased DiscoverX (KINOMEscan)
In short: as §1

[15] = biological target: T15, panel of 203 kinases (Homo sapiens, UniProt P00519); settings: 10 µM, n=1; kinase ABL1; read-out: Percent inhibition ABL1
T15 construct: purchased DiscoverX (KINOMEscan)
In short: as §1

CN1CCN(c2ccc(Nc3nccc(-c4cnn5ncccc45)n3)cc2C#N)CC1 [Compound 1]
inhibition at 10 µM [1]: 99.4%
inhibition at 10 µM [2]: 0%
inhibition at 10 µM [3]: 84.8%
inhibition at 10 µM [4]: 98%
inhibition at 10 µM [5]: 80.2%
inhibition at 10 µM [6]: 90.5%
inhibition at 10 µM [7]: 93%
inhibition at 10 µM [8]: 98.8%
inhibition at 10 µM [9]: 85.3%
inhibition at 10 µM [10]: 97.7%
inhibition at 10 µM [11]: 0%
inhibition at 10 µM [12]: 98.7%
inhibition at 10 µM [13]: 98.3%
inhibition at 10 µM [14]: 96.3%
inhibition at 10 µM [15]: 87.3%

COc1ccc(Nc2nccc(-c3cnn4ncccc34)n2)cc1 [Compound 2]
inhibition at 10 µM [1]: 99.8%
inhibition at 10 µM [2]: 91.7%
inhibition at 10 µM [3]: 63.8%
inhibition at 10 µM [4]: 85%
inhibition at 10 µM [5]: 91.8%
inhibition at 10 µM [6]: 71.5%
inhibition at 10 µM [7]: 0%
inhibition at 10 µM [8]: 92.1%
inhibition at 10 µM [9]: 0%
inhibition at 10 µM [10]: 75.2%
inhibition at 10 µM [11]: 0%
inhibition at 10 µM [12]: 82.5%
inhibition at 10 µM [13]: 0%
inhibition at 10 µM [14]: 74.2%
inhibition at 10 µM [15]: 0%

Cc1ccc(O)cc1Nc1ccnc(Nc2cccc(C(N)=O)c2)n1 [Compound 3]
inhibition at 10 µM [1]: 98.9%
inhibition at 10 µM [2]: 0%
inhibition at 10 µM [3]: 99.6%
inhibition at 10 µM [4]: 100%
inhibition at 10 µM [5]: 100%
inhibition at 10 µM [6]: 0%
inhibition at 10 µM [7]: 94.6%
inhibition at 10 µM [8]: 99.7%
inhibition at 10 µM [9]: 0%
inhibition at 10 µM [10]: 0%
inhibition at 10 µM [11]: 0%
inhibition at 10 µM [12]: 0%
inhibition at 10 µM [13]: 0%
inhibition at 10 µM [14]: 0%
inhibition at 10 µM [15]: 99.7%

Cc1ccc(O)cc1N(C)c1ccnc(Nc2cccc(S(N)(=O)=O)c2)n1 [Compound 4]
inhibition at 10 µM [1]: 100%
inhibition at 10 µM [2]: 69.4%
inhibition at 10 µM [3]: 99.4%
inhibition at 10 µM [4]: 100%
inhibition at 10 µM [5]: 100%
inhibition at 10 µM [6]: 0%
inhibition at 10 µM [7]: 99.1%
inhibition at 10 µM [8]: 99.9%
inhibition at 10 µM [9]: 0%
inhibition at 10 µM [10]: 0%
inhibition at 10 µM [11]: 87%
inhibition at 10 µM [12]: 0%
inhibition at 10 µM [13]: 70%
inhibition at 10 µM [14]: 0%
inhibition at 10 µM [15]: 99.8%

Fc1cccc(COc2ccc(Nc3ncnc4c3CN(CCN3CCOCC3)CC4)cc2Cl)c1 [Compound 6]
inhibition at 10 µM [1]: 0%
inhibition at 10 µM [2]: 0%
inhibition at 10 µM [3]: 0%
inhibition at 10 µM [4]: 0%
inhibition at 10 µM [5]: 0%
inhibition at 10 µM [6]: 0%
inhibition at 10 µM [7]: 0%
inhibition at 10 µM [8]: 0%
inhibition at 10 µM [9]: 0%
inhibition at 10 µM [10]: 0%
inhibition at 10 µM [11]: 0%
inhibition at 10 µM [12]: 0%
inhibition at 10 µM [13]: 0%
inhibition at 10 µM [14]: 0%
inhibition at 10 µM [15]: 0%
